Measured values taken from patent US7288407B2, “Stable cytochrome P450 24 (CYP24) expressing cell line and methods and uses thereof” (Cytochroma, Inc., priority 2002, dated 2007).

Biological target: T1, CYP24 (Homo sapiens, UniProt Q07973)
T1 construct: The full-length CYP24 cDNA was amplified using one-step RT-PCR kit; expressed in transfected cells
T1 sequence (Q07973 36-514): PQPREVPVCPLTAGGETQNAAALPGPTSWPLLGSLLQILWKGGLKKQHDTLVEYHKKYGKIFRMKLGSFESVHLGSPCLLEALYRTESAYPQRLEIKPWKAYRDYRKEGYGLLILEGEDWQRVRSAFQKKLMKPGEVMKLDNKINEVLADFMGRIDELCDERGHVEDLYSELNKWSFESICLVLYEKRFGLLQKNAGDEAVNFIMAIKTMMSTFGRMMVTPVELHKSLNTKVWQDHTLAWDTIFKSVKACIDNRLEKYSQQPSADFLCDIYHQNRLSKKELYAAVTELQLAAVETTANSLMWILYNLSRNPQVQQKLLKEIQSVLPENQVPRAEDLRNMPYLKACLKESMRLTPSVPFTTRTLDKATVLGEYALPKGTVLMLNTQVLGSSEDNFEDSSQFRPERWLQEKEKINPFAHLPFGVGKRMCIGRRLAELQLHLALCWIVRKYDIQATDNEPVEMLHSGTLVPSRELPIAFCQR
Experiment: CYP24 enzyme assay using stable CYP24-V79 cells
Format: cell-based
Settings: Bligh-Dyer extraction, organic phase from 3 hours analyzed by HPLC
Procedure: CYP24/V79 cells were suspended, counted, seeded on well plates and extracted using the Bligh-Dyer extraction method. […] To induce cells, media was removed and the cells washed with 1× PBS buffer. […] Next, a cell suspension was prepared at the day of assay by removing the medium and washing the cell with PBS. 2 ml tripsin/EDTA was added to the plate which was kept in 37° C. for 5 min. Next, 3 ml EDTA medium+1% FCS was added followed by transfer to a 50 ml tube. The plate was washed with 5 ml PBS and mixed. The mix was centrifuged (2,000 rpm, 5 min) and the suspended cells pelleted in DMEM medium+1% BSA. […] About 5 mL 1× PBS buffer was added to collect cells from the plate and then placed in a 50 mL tube followed by repetition with second cell line. About 5 mL 1× PBS buffer was added to further wash the plate and added to the original 50 mL tube. Tubes were centrifuged (2,000 rpm/800 g for 6 minutes) and the supernatant removed. […] The cells were counted via hemocytometer and density adjusted to 250,000 cells/150 μL (1.67 million/1 mL) and then 150 μL added to appropriately labeled wells of 48-well plate. […] The cells were counted and cell density was adjusted to 500,000/150 μL. […] The plate is counted in a scintillation counter. Enzyme activity was then calculated.

CC[C@H]1OC(=O)[C@H](C)[C@@H](O[C@H]2C[C@@](C)(OC)[C@@H](O)[C@H](C)O2)[C@H](C)[C@@H](O[C@@H]2O[C@H](C)C[C@H](N(C)C)[C@H]2O)[C@](C)(O)C[C@@H](C)C(=O)[C@H](C)[C@@H](O)[C@]1(C)O [erythromycin] was tested, and the “effect on CYP24 activity (inhibitor/activator)” value was “inhibitors”.
